Results published in ChEMBL document CHEMBL1158596, “Synthetic studies on selective adenosine A2A receptor antagonists. Part II: synthesis and structure-activity relationships of novel benzofuran derivatives” (Bioorg Med Chem Lett, 2010).
Converted amounts (≈) assume the structure as drawn.

Key:
[1] = target: Adenosine receptor A2a (Homo sapiens) (UniProt P29274); assay: Displacement of [3H]CGS21680 from human adenosine A2A receptor at 0.1 umol/L by scintillation counting
[2] = Intrinsic clearance in marmoset liver microsome […]; assay type: ADME, Callithrix jacchus; conditions: liver microsomes
[3] = target: Adenosine receptor A2a (Homo sapiens) (UniProt P29274); assay: Displacement of [3H]CGS21680 from human adenosine A2A receptor at 0.01 umol/L by scintillation counting
[4] = Solubility n JP2 fluid; assay type: physicochemical
[5] = Intrinsic clearance in human liver microsome; assay type: ADME; conditions: liver microsomes
Mus musculus = assay: Antiparkinsonian effect in mouse assessed as inhibition of CGS-21680-induced catalepsy at 10 mg/kg, po; assay type: functional; conditions: for inhibition in vivo at 10 mg/kg: Mus musculus
[6] = target: T1, Adenosine receptor A2b (Homo sapiens) (UniProt P29275); assay: Antagonist activity at human adenosine A2B receptor at 1 umol/L; assay type: functional
T1 sequence (whole entry): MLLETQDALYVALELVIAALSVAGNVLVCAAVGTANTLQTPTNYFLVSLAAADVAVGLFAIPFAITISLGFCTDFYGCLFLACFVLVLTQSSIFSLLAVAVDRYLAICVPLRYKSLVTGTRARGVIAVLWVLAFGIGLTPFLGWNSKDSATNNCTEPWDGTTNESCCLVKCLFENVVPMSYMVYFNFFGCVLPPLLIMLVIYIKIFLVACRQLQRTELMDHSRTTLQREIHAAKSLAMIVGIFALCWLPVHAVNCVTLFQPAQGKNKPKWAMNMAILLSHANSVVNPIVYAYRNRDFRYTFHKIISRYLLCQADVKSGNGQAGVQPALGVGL

[7] = target: T2, Adenosine receptor A1 (Homo sapiens) (UniProt P30542); assay: Antagonist activity at human adenosine A1 receptor at 1 umol/L; assay type: functional
T2 sequence (whole entry): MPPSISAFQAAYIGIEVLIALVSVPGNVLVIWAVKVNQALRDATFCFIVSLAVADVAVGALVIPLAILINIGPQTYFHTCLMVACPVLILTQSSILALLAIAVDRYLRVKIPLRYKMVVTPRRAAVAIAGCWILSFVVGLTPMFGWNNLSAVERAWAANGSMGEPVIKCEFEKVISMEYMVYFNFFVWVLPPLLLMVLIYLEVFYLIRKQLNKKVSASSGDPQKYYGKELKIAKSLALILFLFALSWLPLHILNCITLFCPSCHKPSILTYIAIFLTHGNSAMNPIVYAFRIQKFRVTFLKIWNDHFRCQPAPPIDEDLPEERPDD

Sequence of Adenosine receptor A2a (Homo sapiens) (P29274 whole entry): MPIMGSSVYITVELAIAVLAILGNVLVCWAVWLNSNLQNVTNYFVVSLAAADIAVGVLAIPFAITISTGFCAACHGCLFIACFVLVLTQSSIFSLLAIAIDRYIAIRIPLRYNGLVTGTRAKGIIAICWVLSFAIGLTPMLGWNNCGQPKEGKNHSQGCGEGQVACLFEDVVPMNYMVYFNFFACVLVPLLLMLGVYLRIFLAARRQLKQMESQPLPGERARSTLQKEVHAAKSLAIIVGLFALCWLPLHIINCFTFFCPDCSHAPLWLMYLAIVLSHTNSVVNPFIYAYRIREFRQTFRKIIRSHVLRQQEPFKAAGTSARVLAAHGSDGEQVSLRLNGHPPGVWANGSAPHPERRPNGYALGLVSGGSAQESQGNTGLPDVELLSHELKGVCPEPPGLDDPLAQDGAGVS

Row | Compound | inhibition [1] | CLint scaled [2] | inhibition [3] | solubility [4] | CLint scaled [5] | inhibition [6] | inhibition [7] | inhibition in vivo at 10 mg/kg (Mus musculus) | inhibition (INH) (Mus musculus)
1 | CNC(=O)c1cc2c(N3CCOCC3)ccc(OC)c2o1 | 58% | 21.7 mL/min/kg | 23% | 97 µg/mL (≈ 334 µM) | – | – | – | – | –
2 | COc1ccc(N2CCOCC2)c2oc(C(=O)Nc3ccncc3)cc12 | 77% | – | 26% | – | – | – | – | – | –
3 | COc1ccc(-c2ccccn2)c2cc(C(=O)Nc3ccncc3)oc12 | 27% | – | 4% | – | 37.2 mL/min/kg | – | – | – | –
4 | COc1c(N2CCOCC2)ccc2cc(C(=O)Nc3ccncc3)oc12 | -5% | – | – | – | – | – | – | – | –
5 | COc1ccc(N2CCOCC2)c2cc(C(=O)Nc3ccc(CN4CCC(O)CC4)cc3)oc12 | 74% | – | 39% | 47 µg/mL (≈ 101 µM) | – | – | – | 50% | –
6 | COc1ccc(N2CCOCC2)c2cc(C(=O)NC3CCN(c4ncccn4)CC3)oc12 | 26% | – | -2% | – | – | – | – | – | –
7 | CCNC(=O)c1cc2c(N3CCOCC3)ccc(OC)c2o1 | 87% | – | 37% | – | – | – | – | 44% | –
8 | COc1ccc(N2CCOCC2)c2cc(C(=O)Nc3ccc(Cn4ccnc4)cc3)oc12 | 89% | 133 mL/min/kg | 50% | 2 µg/mL (≈ 4.62 µM) | – | – | – | – | –
9 | COc1ccc(-c2cnccn2)c2cc(C(=O)Nc3ccncc3)oc12 | 22% | – | 24% | – | 154 mL/min/kg | – | – | – | –
10 | COc1ccc(N2CCOCC2)c2cc(C(=O)Nc3ccncc3)oc12 | 73% | < 7.17 mL/min/kg | 30% | 87 µg/mL (≈ 246 µM) | – | 21% | 4% | 76% | –

More lines, main results first:

Row | inhibition [1] | CLint scaled [2] | inhibition [3] | solubility [4] | CLint scaled [5] | inhibition [6] | inhibition [7] | Compound | inhibition in vivo at 10 mg/kg (Mus musculus) | inhibition (INH) (Mus musculus)
11 | 44% | – | 20% | – | < 7.83 mL/min/kg | – | – | COc1ccc(-c2cnccn2)c2cc(C(=O)Nc3ccc(Cn4ccnc4)cc3)oc12 | – | –
12 | 90% | – | 56% | – | 40.7 mL/min/kg | – | – | COc1ccc(-c2ccncc2)c2cc(C(=O)Nc3ccc(Cn4ccnc4)cc3)oc12 | 60% | –
13 | 67% | – | 27% | – | 57 mL/min/kg | – | – | COc1ccc(-c2cccnc2)c2cc(C(=O)Nc3ccncc3)oc12 | 38% | –
14 | 87% | – | 29% | – | 580 mL/min/kg | – | – | COc1ccc(-c2ccccc2)c2cc(C(=O)Nc3ccncc3)oc12 | – | 40%
15 | 83% | – | 46% | – | 53 mL/min/kg | – | – | COc1ccc(-c2cccnc2)c2cc(C(=O)Nc3ccc(Cn4ccnc4)cc3)oc12 | 60% | –
16 | 72% | – | 18% | – | 32.8 mL/min/kg | – | – | COc1ccc(-c2ccncc2)c2cc(C(=O)Nc3ccncc3)oc12 | 48% | –
